The nature of assay [1]: Inhibitory activity against sweet almond Beta-glucosidase.
Experiment in assay [2]: as above
The source holds these as a separate data set.

Data on five molecules can be found in BindingDB's records for doi:10.1016/S0960-894X(01)81044-1 (1991).

For orientation: Ki means a dissociation constant, usually derived from enzyme kinetics or from competition with a known ligand. A high value points to a looser hold on the target.

For `NCCc1cn(C(=O)c2ccccc2)cn1` [[4-(2-Amino-ethyl)-imidazol-1-yl]-phenyl-methanone], the Ki in assay [1] worked out at 0.00011 mM.
`OC[C@H]1OC[C@@H](O)[C@@H]1O` [(2R,3S,4R)-2-Hydroxymethyl-tetrahydro-furan-3,4-diol] displayed a Ki in assay [2] of 36.2 mM.
As to `OC[C@H]1OC[C@H](O)[C@@H](O)[C@@H]1O` [(2R,3S,4R,5S)-2-(hydroxymethyl)oxane-3,4,5-triol], the Ki in assay [2] was 60 mM.
Turning to `OC[C@H]1OC[C@@H](O)[C@H]1O` [(2R,3R,4R)-2-Hydroxymethyl-tetrahydro-furan-3,4-diol], in assay [2], the Ki was determined as 14.8 mM.
Still for that read-out and setting: the same measure for `O[C@H]1[C@H](O)COC[C@@H]1O` [(3S,4R,5R)-Tetrahydro-pyran-3,4,5-triol]: 39 mM.
